Here are results for 11 compounds from ChEMBL document CHEMBL5108020, “Design and synthesis of novel benzimidazole derivatives as potential Pseudomonas aeruginosa anti-biofilm agents inhibiting LasR: Evidence from comprehensive molecular dynamics simulation and in vitro investigation” (Eur J Med Chem, 2022).

Values after ≈ are worked out from the molar mass of the structure shown. Active and inactive are the calls of the source. The calls are words filed in the database; no cut-off is given here.

In test [1] the test system is Pseudomonas aeruginosa. The test is described as follows: Antibacterial activity against Pseudomonas aeruginosa assessed as inhibition of bacterial growth incubated for 24 hrs by CLSI broth microdilution method. It counts as functional. The note with it: for MIC: Pseudomonas aeruginosa.
Test [2] has as its system Pseudomonas aeruginosa. Nature of the test: Antibacterial activity against Pseudomonas aeruginosa ATCC 27853 assessed as zone of growth inhibition incubated for 24 hrs by agar diffusion method. It counts as functional.
A short description of test [3]: Inhibition of quorum sensing system in Pseudomonas aeruginosa assessed as inhibition of rhamnolipid production at sub-MIC by spectrophotometric method.
The subject of test [4] is Klebsiella pneumoniae. Nature of the test: Antibacterial activity against Klebsiella pneumoniae ATCC 700603 assessed as inhibition of bacterial growth incubated for 24 hrs by agar diffusion method. The class given is functional, organism-based.
A short description of test [5]: Inhibition of quorum sensing system in Pseudomonas aeruginosa assessed as inhibition of biofilm production at sub-MIC incubated for 24 hrs by crystal violet staining based analysis.
The nature of test [6]: Inhibition of quorum sensing system in Pseudomonas aeruginosa assessed as inhibition of pyocyanin production at sub-MIC by absorbance based analysis.

Consider `C[C@@H](O)[C@H]1C(=O)N2C(C(=O)O)=C(SCCNC=N)C[C@H]12` [IMIPENEM ANHYDROUS], for which, in test [1], the MIC stood at 93.9 µM (≈ 28.1 µg/mL). Moreover, the “inhibition zone (IZ)” value in test [2] is on record as 19 mm.

Turning to `c1ccc2[nH]c(-c3ccc(N4CCOCC4)cc3)nc2c1`, in test [1], the SubMIC was 50.1 µM. For the same compound, in test [1], the minimum inhibitory concentration (MIC) was 201 µM (≈ 56.2 µg/mL). The inhibition in test [3] was determined as 35.7%; in test [5], 60.5%; in test [6] it was 55.2%. In addition, the outcome in test [4] was Active. The “inhibition zone (IZ)” value in test [2] stood at 18 mm.

On to `Cc1ccc(NC(=O)COc2ccc(-c3nc4cc(Cl)ccc4[nH]3)cc2)cc1`, for which the SubMIC in test [1] stood at 8.9 µM. The MIC in test [1] turned out to be 35.7 µM (≈ 14 µg/mL). Moreover, the inhibition was determined as 11.4% in test [3], 31.3% in test [5] and 24.5% in test [6]. Also, the result in test [4] was Active. Further, the “inhibition zone (IZ)” value in test [2] is on record as 18 mm.

Consider `Cc1ccc(NC(=O)COc2ccc(-c3nc4ccccc4[nH]3)cc2)cc1`, for which the SubMIC in test [1] turned out to be 39.1 µM. The MIC in test [1] came to 157 µM (≈ 56.2 µg/mL). Further, the results for the inhibition in test [3], in test [5] and in test [6] were 25.1%, 52.4% and 36.4%, respectively. Also, in test [2], the “inhibition zone (IZ)” value is recorded as 13 mm.

On to `O=C(COc1ccc(-c2nc3ccccc3[nH]2)cc1)Nc1ccc(F)cc1`, for which, in test [1], the SubMIC came out at 38.7 µM. Besides, the minimal inhibitory concentration (MIC) in test [1] was found to be 156 µM (≈ 56.2 µg/mL). For the same compound, the inhibition in test [3] came out at 27.7%; in test [5], 51.8%; in test [6], 37%. In test [2], the “inhibition zone (IZ)” value came out at 17 mm.

For `O=C(COc1ccc(-c2nc3ccccc3[nH]2)cc1)Nc1ccc([N+](=O)[O-])cc1`, in test [1], the SubMIC worked out at 36 µM. Besides, the minimal inhibitory concentration (MIC) in test [1] came to 145 µM (≈ 56.2 µg/mL). Besides, the inhibition was 35.2% in test [3], 63.6% in test [5] and 57.6% in test [6]. Also, in test [2], the “inhibition zone (IZ)” value was found to be 17 mm.

Consider `c1ccc2[nH]c(-c3ccc(-n4ccnc4)cc3)nc2c1`, for which, in test [1], the SubMIC amounted to 26.8 µM. The MIC in test [1] turned out to be 109 µM (≈ 28.3 µg/mL). Besides, the inhibition in test [3] stood at 20.1%; in test [5] it was 46.1%; in test [6], 34%. Besides, the outcome in test [4] was Active. Besides, in test [2], the “inhibition zone (IZ)” value is on record as 18 mm.

As for `O=C(COc1ccc(-c2nc3cc(Cl)ccc3[nH]2)cc1)Nc1ccc([N+](=O)[O-])cc1`, in test [1], the SubMIC stood at 16.5 µM. The minimal inhibitory concentration (MIC) in test [1] was 66.5 µM (≈ 28.1 µg/mL). Further, the inhibition in test [3] came to 7%; in test [5], 32.5%; in test [6] it was 14.8%. The result in test [4] was Active. For the same compound, the “inhibition zone (IZ)” value in test [2] worked out at 16 mm.

As for `Cc1ccccc1NC(=O)COc1ccc(-c2nc3cc(Cl)ccc3[nH]2)cc1`, in test [1], the SubMIC worked out at 17.8 µM. The MIC in test [1] turned out to be 71.7 µM (≈ 28.1 µg/mL). Besides, the inhibition in test [3] was determined as 3%; in test [5], 29%; in test [6] it was 6.5%. Besides, in test [4], the result was Active. Further, the “inhibition zone (IZ)” value in test [2] is reported as 16 mm.

As for `O=C(COc1ccc(-c2nc3ccccc3[nH]2)cc1)Nc1ccccc1`, in test [1], the SubMIC amounted to 40.7 µM. Also, the minimal inhibitory concentration (MIC) in test [1] was 164 µM (≈ 56.2 µg/mL). Also, the inhibition came to 28.2% in test [3], 51.5% in test [5] and 36.7% in test [6]. Besides, the “inhibition zone (IZ)” value in test [2] worked out at 19 mm.

`O=C(COc1ccc(-c2nc3cc(Cl)ccc3[nH]2)cc1)Nc1ccccc1[N+](=O)[O-]`: the SubMIC in test [1] amounted to 16.5 µM. Besides, in test [1], the minimum inhibitory concentration (MIC) is 66.5 µM (≈ 28.1 µg/mL). Also, the inhibition was determined as 20.4% in test [3], 51.8% in test [5] and 35.8% in test [6]. Further, the outcome in test [4] was Active. The “inhibition zone (IZ)” value in test [2] amounted to 16 mm.
